Data from PMC2760454 (Biochemistry, 2008).
Where two headings read alike, the source gives them in different places.

Assays:
[1] = target: T1, homoisocitrate dehydrogenase (HIcDH) (Saccharomyces cerevisiae, UniProt P40495); assay: Product and dead-end inhibition studies of HIcDH in the absence of K+; type: biochemical; details: NAD fixed at its Km
[2] = target: T1, homoisocitrate dehydrogenase (HIcDH); assay: HIcDH initial velocity studies; type: biochemical; details: for Kact (activation constant): varied salt, MgHIc 4.2 µM, NAD 0.5 mM, fit to eq. 1
[3] = target: T1, homoisocitrate dehydrogenase (HIcDH); assay: pH dependence of HIcDH kinetic parameters and of the activation constant of K+; type: biochemical
[4] = target: T1, homoisocitrate dehydrogenase (HIcDH); details: in the presence of K+; cited from earlier work

T1 sequence (P40495 23-371): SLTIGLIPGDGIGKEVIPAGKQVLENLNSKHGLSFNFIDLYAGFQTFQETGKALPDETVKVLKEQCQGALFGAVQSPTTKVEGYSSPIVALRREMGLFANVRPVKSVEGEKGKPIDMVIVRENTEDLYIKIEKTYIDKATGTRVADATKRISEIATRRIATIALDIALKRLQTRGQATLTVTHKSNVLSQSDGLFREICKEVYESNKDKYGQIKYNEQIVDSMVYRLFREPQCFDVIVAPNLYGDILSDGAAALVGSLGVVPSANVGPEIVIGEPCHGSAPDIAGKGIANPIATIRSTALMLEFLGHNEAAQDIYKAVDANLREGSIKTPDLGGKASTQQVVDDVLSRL

Question: For `O=C(O)CCC=C(C(=O)O)C(O)C(=O)O` (stereo not drawn) [CPM, 3-Carboxypropylidenemalate], which “inhibition constant, competitive versus MgHIc” value [1] is on record?
Answer: 65 ± 7 ∝M

Question: Which “fold increase in initial rate” value ([2]; 200 mM KCl versus absence, reactants fixed at their Km values) does the source give for `[Cl-].[K+]` [KCl] here?
Answer: 13 fold

Question: What about the “Kact (activation constant)” value [2] of the same compound?
Answer: 55 ± 20 mM

Question: Which “Ki fold higher than with KCl” value ([2]; KOAc versus KCl) does the source give for `CC(=O)[O-].[K+]` [KOAc, Potassium acetate] here?
Answer: 5 fold

Question: What about the “Kact (activation constant)” value [2] of the same compound?
Answer: 26 ± 4 mM

Question: What does the source list for `[K+]` [K^+, Potassium]?
Answer: Kd ([2]; read-out: KiK, NAD varied at fixed KOAc, MgHIc saturating (10Km), fit to eq. 5): 43 ± 19 mM; appKact, pH independent value ([3]; KOAc varied, NAD 0.4 mM, MgHIc 10Km, average of data above pH 7): about 13 mM

Question: Which results are given for `NC(=O)c1ccc[n+]([C@@H]2O[C@H](COP(=O)([O-])OP(=O)(O)OC[C@H]3O[C@@H](n4cnc5c(N)ncnc54)[C@H](O)[C@@H]3O)[C@@H](O)[C@H]2O)c1` [NAD, nicotinamide adenine dinucleotide]?
Answer: Kd [2]: 77 ± 57 mM; KNAD ([2]; KCl 0 mM): 9 ± 3 mM; KNAD ([2]; KCl 5 mM): 1.6 ± 0.2 mM; KNAD ([2]; KCl 15 mM): 1.3 ± 0.1 mM; KNAD ([2]; KCl 150 mM): 0.8 ± 0.1 mM; KNAD ([2]; KCl 350 mM): 0.9 ± 0.2 mM; KNAD ([2]; Minus KOAc, pH 8.0, 25°C): 9 ± 3 mM; V1/KNADEt ([2]; Minus KOAc, pH 8.0, 25°C): (5 ± 1) × 10^2 M^−1·s^−1; KNAD ([2]; NAD varied at fixed KOAc, MgHIc saturating (10Km), fit to eq. 5): 0.3 ± 0.1 mM; KNAD ([2]; Plus KOAc, pH 8.0, 25°C): 0.3 ± 0.1 mM; V1/KNADEt ([2]; Plus KOAc, pH 8.0, 25°C): (4 ± 1) × 10^4 M^−1·s^−1; V/KNADEt, constant value at high pH ([3]; absence of K+, pH 8.5 to 9.7): about 123 ± 3 M^−1s^−1

Question: For `NC(=O)C1=CN([C@@H]2O[C@H](COP(=O)(O)OP(=O)(O)OC[C@H]3O[C@@H](n4cnc5c(N)ncnc54)[C@H](O)[C@@H]3O)[C@@H](O)[C@H]2O)C=CC1` [NADH, reduced nicotinamide adenine dinucleotide], which Ki [4] is on record?
Answer: 300 µM

Question: With `C[N+](C)(C)C.[Cl-]` [tetramethylammonium chloride, reference compound] as the compound, how does the “initial rate as % of that without KCl” value ([2]; 200 mM, fixed concentrations of MgHIc and NAD) read?
Answer: about 36%
